The supplement of paper PMC10307832

What was measured:
Experiment in all cases: relative viability (nuclei count vs DMSO), 5 days (fraction); higher = more cells survive
Obatoclax + Alpelisib = compound: COC1=CC(c2cc3ccccc3[nH]2)=N/C1=C\c1[nH]c(C)cc1C [Obatoclax] + Cc1nc(NC(=O)N2CCC[C@H]2C(N)=O)sc1-c1ccnc(C(C)(C)C(F)(F)F)c1 [Alpelisib] (partner 2 µM)
In short: (§1)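 Lung cancer cell lines were seeded in 1536-well plates and dosed by pin tool the next day, with either a single drug or a fixed anchor-drug dose combined with five library-drug doses (not always all listed) spaced in √10 steps. Five days later, one step fixed the cells and stained their nuclei (final 0.05% Triton X-100, 1% formaldehyde, 1 ug/ml Hoechst), and nuclei were counted on 4× images. Relative viability is the nuclei count in treated wells divided by the count in vehicle wells, and each value is the median of duplicate plates.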

Obatoclax + Pictilisib = compound: COC1=CC(c2cc3ccccc3[nH]2)=N/C1=C\c1[nH]c(C)cc1C [Obatoclax] + CS(=O)(=O)N1CCN(Cc2cc3nc(-c4cccc5[nH]ncc45)nc(N4CCOCC4)c3s2)CC1 [Pictilisib] (partner 1 µM)
In short: as §1

Obatoclax + Olaparib = compound: COC1=CC(c2cc3ccccc3[nH]2)=N/C1=C\c1[nH]c(C)cc1C [Obatoclax] + O=C(c1cc(Cc2n[nH]c(=O)c3ccccc23)ccc1F)N1CCN(C(=O)C2CC2)CC1 [Olaparib] (partner 8 µM)
In short: as §1

Bortezomib + Dasatinib = compound: CC(C)C[C@H](NC(=O)[C@H](Cc1ccccc1)NC(=O)c1cnccn1)B(O)O [Bortezomib] + Cc1nc(Nc2ncc(C(=O)Nc3c(C)cccc3Cl)s2)cc(N2CCN(CCO)CC2)n1 [Dasatinib] (partner 0.075 µM)
In short: as §1

NCI-H650 was tested, and the relative viability (Obatoclax + Alpelisib; first compound 0.01 µM) was 0.975, the relative viability (Obatoclax + Alpelisib; first compound 0.03162 µM) was 1.1 and the relative viability (Obatoclax + Alpelisib; first compound 0.1 µM) was 0.811. The relative viability (Obatoclax + Alpelisib; first compound 0.3162 µM) was 0.693, the relative viability (Obatoclax + Alpelisib; first compound 1 µM) was 0.446 and the relative viability (Obatoclax + Pictilisib; first compound 0.01 µM) was 0.812. The relative viability (Obatoclax + Pictilisib; first compound 0.03162 µM) was 0.722, the relative viability (Obatoclax + Pictilisib; first compound 0.1 µM) was 0.597 and the relative viability (Obatoclax + Pictilisib; first compound 0.3162 µM) was 0.462. For the same cell line, the relative viability (Obatoclax + Pictilisib; first compound 1 µM) was 0.333, the relative viability (Obatoclax + Olaparib; first compound 0.01 µM) was 0.385 and the relative viability (Obatoclax + Olaparib; first compound 0.03162 µM) was 0.388. For the same cell line, the relative viability (Obatoclax + Olaparib; first compound 0.3162 µM) was 0.264, the relative viability (Obatoclax + Olaparib; first compound 1 µM) was 0.18 and the relative viability (Bortezomib + Dasatinib; first compound 0.000632 µM) was 0.503. It also gave a relative viability (Bortezomib + Dasatinib; first compound 0.002 µM) of 0.428, a relative viability (Bortezomib + Dasatinib; first compound 0.006325 µM) of 0.268 and a relative viability (Bortezomib + Dasatinib; first compound 0.02 µM) of 0.16.
